IC50 data for 66 molecules are collected here from the Kinase Knowledgebase extract (Sharma et al. 2016).

As a reminder, the IC50 is the midpoint of a concentration-inhibition curve. Low readings indicate greater potency, high ones weaker potency.

The target in the assay is PIK3CA (human) (UniProt P42336). As to the kind of experiment: Assessment of PIK3CA Kinase Activity.
PIK3CA (human), sequence (P42336 whole entry, looked up): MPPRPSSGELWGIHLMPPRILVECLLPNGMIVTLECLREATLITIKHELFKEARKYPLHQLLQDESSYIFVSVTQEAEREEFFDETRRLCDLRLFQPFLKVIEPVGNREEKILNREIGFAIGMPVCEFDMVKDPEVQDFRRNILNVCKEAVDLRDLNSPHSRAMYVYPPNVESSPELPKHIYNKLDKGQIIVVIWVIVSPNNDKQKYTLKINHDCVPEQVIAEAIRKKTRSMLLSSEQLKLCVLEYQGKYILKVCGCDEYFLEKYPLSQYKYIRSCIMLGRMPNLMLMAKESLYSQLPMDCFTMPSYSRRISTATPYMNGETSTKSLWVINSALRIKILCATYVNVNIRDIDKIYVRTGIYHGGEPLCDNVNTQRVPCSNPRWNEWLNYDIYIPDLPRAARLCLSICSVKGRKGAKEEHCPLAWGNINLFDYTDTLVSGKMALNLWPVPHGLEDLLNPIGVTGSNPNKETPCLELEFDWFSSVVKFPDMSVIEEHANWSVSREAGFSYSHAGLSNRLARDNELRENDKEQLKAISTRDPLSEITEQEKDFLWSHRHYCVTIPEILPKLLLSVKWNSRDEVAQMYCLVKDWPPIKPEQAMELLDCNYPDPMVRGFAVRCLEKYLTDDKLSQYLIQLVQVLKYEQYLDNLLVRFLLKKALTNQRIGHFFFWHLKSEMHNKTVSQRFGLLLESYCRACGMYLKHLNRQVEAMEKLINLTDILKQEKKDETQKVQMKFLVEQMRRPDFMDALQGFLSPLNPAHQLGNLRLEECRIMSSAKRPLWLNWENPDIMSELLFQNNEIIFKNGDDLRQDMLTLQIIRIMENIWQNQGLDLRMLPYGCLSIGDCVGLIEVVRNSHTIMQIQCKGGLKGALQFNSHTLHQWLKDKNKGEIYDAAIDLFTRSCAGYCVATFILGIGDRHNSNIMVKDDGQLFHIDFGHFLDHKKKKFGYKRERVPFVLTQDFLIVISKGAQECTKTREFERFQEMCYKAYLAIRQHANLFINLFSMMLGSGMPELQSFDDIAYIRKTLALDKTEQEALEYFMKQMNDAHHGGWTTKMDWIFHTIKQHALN

With `Cc1noc(C)c1-c1ccc2c(N3CCOCC3)nc(-c3ccc(NC(=O)Nc4ccc(C(=O)N5CC[C@H](N(C)C)C5)cc4)cc3)nc2c1`, the IC50 was 50 to 200 nM.
Molecule `CC(=O)c1ccc(-c2ccc3c(N4CCOCC4)nc(-c4ccc(NC(=O)Nc5ccc(C(=O)N(C)C)c(F)c5)cc4)nc3c2)o1` had an IC50 of less than 50 nM.
In the case of `CN(C)C(=O)c1ccc(NC(=O)Nc2ccc(-c3nc(N4CCOCC4)c4ccc(-c5ccc(C#N)o5)cc4n3)c(F)c2)cc1` it was less than 50 nM; in that of `Cc1nn(C)c(C)c1-c1ccc2c(N3CCOCC3)nc(-c3ccc(NC(=O)Nc4ccc(C(=O)N(C)C)cc4)cc3)nc2c1`, less than 50 nM.
In the case of `CN(C)C(=O)c1ccc(NC(=O)Nc2ccc(-c3nc(N4CCOCC4)c4ccc(-c5cnc(N)nc5)cc4n3)cc2)cc1`, the half-inhibitory concentration (IC50) was less than 50 nM.
`N[C@H]1CCN(C(=O)c2ccc(NC(=O)Nc3ccc(-c4nc(N5CCOCC5)c5ccc(-c6cncnc6)cc5n4)cc3F)cc2)C1` displayed a half-maximal inhibitory concentration (IC50) of less than 50 nM.
With `CN(C)C(=O)c1ccc(NC(=O)Nc2ccc(-c3nc(N4CCOCC4)c4ccc(-c5cccnc5F)cc4n3)c(F)c2)cc1` the figure was less than 50 nM; with `COc1ncc(-c2cnc3c(N4CCOCC4)nc(-c4ccc(NC(=O)Nc5ccc(C(=O)N(C)C)cc5)c(F)c4)nc3c2)cn1`, less than 50 nM.
With `CN(C)[C@@H]1CCN(C(=O)c2ccc(NC(=O)Nc3ccc(-c4nc(N5CCOCC5)c5ncc(-c6cnn(C)c6)cc5n4)cc3)cc2)C1` the figure was less than 50 nM; with `COc1ncc(-c2ccc3c(N4CCOCC4)nc(-c4ccc(NC(=O)Nc5ccc(C(=O)N(C)C)cc5)cc4)nc3c2)cn1`, less than 50 nM.
In turn, `Cc1ccncc1-c1ccc2c(N3CCOCC3)nc(-c3ccc(NC(=O)Nc4ccc(C(=O)N(C)C)cc4)c(F)c3)nc2c1` displayed an IC50 of less than 50 nM.
In the case of `COc1ccc(-c2ccc3c(N4CCOCC4)nc(-c4ccc(NC(=O)Nc5ccc(C(=O)N(C)C)cc5F)cc4)nc3c2)cn1` it was less than 50 nM; in that of `CNC(=O)c1ccc(NC(=O)Nc2ccc(-c3nc(N4CCOCC4)c4ccc(-c5cccc(S(C)(=O)=O)c5)cc4n3)cc2)cc1`, less than 50 nM; in that of `Cc1ccc(-c2ccc3c(N4CCOCC4)nc(-c4ccc(NC(=O)Nc5ccc(C(=O)N(C)C)cc5)cc4)nc3c2)s1`, 50 to 200 nM.
In turn, `CN(C)[C@@H]1CCN(C(=O)c2ccc(NC(=O)Nc3ccc(-c4nc(N5CCOCC5)c5ncc(-c6cnn(C)c6)cc5n4)cc3F)cc2)C1` gave a concentration for half-maximal inhibition (IC50) of less than 50 nM.
With `CC(=O)Nc1ccc(NC(=O)Nc2ccc(-c3nc(N4CCOCC4)c4ccc(-c5ccc(C)o5)cc4n3)cc2)cc1` the figure was 50 to 200 nM; with `CN(C)[C@@H]1CCN(C(=O)c2ccc(NC(=O)Nc3ccc(-c4nc(N5CCOCC5)c5ccc(-c6cncnc6)cc5n4)cc3)cc2)C1`, less than 50 nM; with `CN(C)C(=O)c1ccc(NC(=O)Nc2ccc(-c3nc(N4CCOCC4)c4ncc(-c5cncnc5)cc4n3)cc2)cc1`, less than 50 nM.
With `CN(C)C(=O)c1ccc(NC(=O)Nc2ccc(-c3nc(N4CCOCC4)c4ccc(-c5ccncc5F)cc4n3)cc2)cc1` the figure was less than 50 nM; with `Cc1ccc(-c2ccc3c(N4CCOCC4)nc(-c4ccc(NC(=O)Nc5ccc(C(=O)N(C)C)c(F)c5)cc4)nc3c2)o1`, 50 to 200 nM.
Take `CN(C)C(=O)c1ccc(NC(=O)Nc2ccc(-c3nc(N4CCOCC4)c4ncc(-c5cnn(C)c5)cc4n3)cn2)cc1`: the IC50 was less than 50 nM.
For `CN(C)C(=O)c1ccc(NC(=O)Nc2ccc(-c3nc(N4CCOCC4)c4ccc(-c5cncnc5)cc4n3)cn2)c(F)c1`, the IC50 was less than 50 nM.
With `N[C@H]1CCN(C(=O)c2ccc(NC(=O)Nc3ccc(-c4nc(N5CCOCC5)c5ccc(-c6ccco6)cc5n4)cc3)cc2)C1` the figure was less than 50 nM.
In the case of `CN(C)C(=O)c1ccc(NC(=O)Nc2ccc(-c3nc(N4CCOCC4)c4ccc(-c5ccco5)cc4n3)cn2)cc1` it was less than 50 nM; in that of `Cc1ccc(-c2ccc3c(N4CCOCC4)nc(-c4ccc(NC(=O)Nc5ccc(C(=O)N6CCN(C)CC6)cc5)cc4)nc3c2)o1`, 50 to 200 nM; in that of `CN(C)C(=O)c1ccc(NC(=O)Nc2ccc(-c3nc(N4CCOCC4)c4ccc(-c5ccccn5)cc4n3)cc2F)cc1`, 50 to 200 nM.
With `CN1CCN(C(=O)c2ccc(NC(=O)Nc3ccc(-c4nc(N5CCOCC5)c5ccc(-c6cccc(S(C)(=O)=O)c6)cc5n4)cc3)cc2)CC1` the figure was less than 50 nM; with `CN(C)C(=O)c1ccc(NC(=O)Nc2ccc(-c3nc(N4CCOCC4)c4ccc(-c5cnn(C)c5)cc4n3)cc2F)cc1`, less than 50 nM; with `CN(C)C(=O)c1ccc(NC(=O)Nc2ccc(-c3nc(N4CCOCC4)c4ccc(-c5ccncc5)cc4n3)cc2)cc1`, less than 50 nM.
On to `CN(C)C(=O)c1ccc(NC(=O)Nc2ccc(-c3nc(N4CCOCC4)c4ncc(-c5cccnc5)cc4n3)cc2)c(F)c1`, for which the 50% inhibitory concentration (IC50) is less than 50 nM.
In turn, `CN(C)C(=O)c1ccc(NC(=O)Nc2ccc(-c3nc(N4CCOCC4)c4ccc(-c5cccnc5)cc4n3)cc2F)cc1` gave an IC50 of less than 50 nM.
`Cc1ccc(-c2ccc3c(N4CCOCC4)nc(-c4ccc(NC(=O)Nc5ccc(C(=O)N(C)C)cc5F)cc4)nc3c2)cn1` gave an IC50 of less than 50 nM.
In the case of `Cc1nn(C)c(C)c1-c1ccc2c(N3CCOCC3)nc(-c3ccc(NC(=O)Nc4ccc(C(=O)N(C)C)cc4)cc3F)nc2c1` it was less than 50 nM; in that of `CN(C)C(=O)c1ccc(NC(=O)Nc2ccc(-c3nc(N4CCOCC4)c4cc(F)c(-c5cccnc5F)cc4n3)cc2)cc1`, less than 50 nM; in that of `CN(C)C(=O)c1ccc(NC(=O)Nc2ccc(-c3nc(N4CCOCC4)c4ccc(-c5cccnc5)cc4n3)cc2)cc1F`, less than 50 nM.
With `CN(C)C(=O)c1ccc(NC(=O)Nc2ccc(-c3nc(N4CCOCC4)c4ccc(-c5ccc(C(C)(C)O)o5)cc4n3)c(F)c2)cc1` the figure was 50 to 200 nM; with `CN(C)C(=O)c1ccc(NC(=O)Nc2ccc(-c3nc(N4CCOCC4)c4ncc(-c5cnn(C)c5)cc4n3)cc2)cc1`, less than 50 nM.
With `CN(C)C(=O)c1ccc(NC(=O)Nc2ccc(-c3nc(N4CCOCC4)c4ccc(-c5cccc(NS(C)(=O)=O)c5)cc4n3)cc2)cc1` the figure was less than 50 nM.
Regarding `CN(C)C(=O)c1ccc(NC(=O)Nc2ccc(-c3nc(N4CCOCC4)c4ccc(-c5cncnc5)cc4n3)cc2)cc1F`, the IC50 was less than 50 nM.
With `CN1CCN(C(=O)c2ccc(NC(=O)Nc3ccc(-c4nc(N5CCOCC5)c5ccc(-c6ccsc6)cc5n4)cc3)cc2)CC1` the figure was 50 to 200 nM; with `CN(C)C(=O)c1ccc(NC(=O)Nc2ccc(-c3nc(N4CCOCC4)c4ccc(-c5ccc(N)nc5)cc4n3)cc2)cc1`, less than 50 nM; with `CNC(=O)c1ccc(NC(=O)Nc2ccc(-c3nc(N4CCOCC4)c4ccc(-c5ccc(C)o5)cc4n3)cc2)cc1`, 50 to 200 nM.
Molecule `CN(C)C(=O)c1ccc(NC(=O)Nc2ccc(-c3nc(N4CCOCC4)c4cc(F)c(-c5cnn(C)c5)cc4n3)cc2)cc1` returned a concentration for half-maximal inhibition (IC50) of less than 50 nM.
In the case of `CN(C)CCNC(=O)c1ccc(NC(=O)Nc2ccc(-c3nc(N4CCOCC4)c4ccc(-c5ccco5)cc4n3)cc2)cc1`, the IC50 was less than 50 nM.
The molecule `CN(C)C1CCN(C(=O)c2ccc(NC(=O)Nc3ccc(-c4nc(N5CCOCC5)c5ccc(-c6cccnc6F)cc5n4)cn3)cc2)CC1` returned an IC50 of less than 50 nM.
Take `CN(C)[C@H]1CCN(C(=O)c2ccc(NC(=O)Nc3ccc(-c4nc(N5CCOCC5)c5ncc(-c6cncnc6)cc5n4)cc3)cc2)C1`: the IC50 was less than 50 nM.
As for `CN(C)C(=O)c1ccc(NC(=O)Nc2ccc(-c3nc(N4CCOCC4)c4ncc(-c5cccnc5)cc4n3)cc2)cc1F`, the half-maximal inhibitory concentration (IC50) is less than 50 nM.
With `CN(C)C(=O)c1ccc(NC(=O)Nc2ccc(-c3nc(N4CCOCC4)c4ccc(-c5ccoc5)cc4n3)cc2)cc1` the figure was 50 to 200 nM; with `CN1CCN(C(=O)c2ccc(NC(=O)Nc3ccc(-c4nc(N5CCOCC5)c5ncc(-c6cncnc6)cc5n4)cc3)cc2)CC1`, less than 50 nM.
With `Cc1ccc(-c2ccc3c(N4CCOCC4)nc(-c4ccc(NC(=O)Nc5ccc(C(=O)N(C)CCN(C)C)cc5)cc4)nc3c2)o1` the figure was less than 50 nM; with `CN(C)C(=O)c1ccc(NC(=O)Nc2ccc(-c3nc(N4CCOCC4)c4ccc(-c5ccco5)cc4n3)cc2)cc1F`, 50 to 200 nM.
In the case of `CN(C)C(=O)c1ccc(NC(=O)Nc2ccc(-c3nc(N4CCOCC4)c4ccc(-c5cncnc5)cc4n3)cc2F)cc1` it was 50 to 200 nM; in that of `CN(C)C(=O)c1ccc(NC(=O)Nc2ccc(-c3nc(N4CCOCC4)c4ccc(-c5ccc(CO)o5)cc4n3)cc2)cc1F`, less than 50 nM; in that of `CN(C)C(=O)c1ccc(NC(=O)Nc2ccc(-c3nc(N4CCOCC4)c4ccc(-c5ccc(N)nc5)cc4n3)cc2)c(F)c1`, 50 to 200 nM.
Consider `COc1ncccc1-c1ccc2c(N3CCOCC3)nc(-c3ccc(NC(=O)Nc4ccc(C(=O)N(C)C)cc4)cc3F)nc2c1`, for which the IC50 was 50 to 200 nM.
With `CN1CCN(C(=O)c2ccc(NC(=O)Nc3ccc(-c4nc(N5CCOCC5)c5cc(F)c(-c6cccnc6)cc5n4)cc3F)cc2)CC1` the figure was less than 50 nM; with `CN(C)C(=O)c1ccc(NC(=O)Nc2ccc(-c3nc(N4CCOCC4)c4ccc(-c5ccnnc5)cc4n3)cc2)cc1`, 50 to 200 nM.
With `CN(C)C(=O)c1ccc(NC(=O)Nc2ccc(-c3nc(N4CCOCC4)c4ccc(CO)cc4n3)cc2)cc1` the figure was less than 50 nM; with `Cc1noc(C)c1-c1cnc2c(N3CCOCC3)nc(-c3ccc(NC(=O)Nc4ccc(C(=O)N(C)C)cc4)cc3)nc2c1`, less than 50 nM.
`Cc1noc(C)c1-c1ccc2c(N3CCOCC3)nc(-c3ccc(NC(=O)Nc4ccc(C(=O)N(C)C)cc4)cc3F)nc2c1`: the half-inhibitory concentration (IC50) lay in the range of 50 to 200 nM.
In the case of `CN(C)C(=O)c1ccc(NC(=O)Nc2ccc(-c3nc(N4CCOCC4)c4cc(F)c(-c5cncnc5)cc4n3)cc2F)cc1` it was less than 50 nM.
As to `CN(C)C(=O)c1ccc(NC(=O)Nc2ccc(-c3nc(N4CCOCC4)c4ccc(-c5cccc(S(C)(=O)=O)c5)cc4n3)cc2F)cn1`, the IC50 is less than 50 nM.
In the case of `CN(C)C(=O)c1ccc(NC(=O)Nc2ccc(-c3nc(N4CCOCC4)c4ccc(-c5ccc(C(=O)O)o5)cc4n3)cc2)cc1` it was less than 50 nM; in that of `CN(C)[C@H]1CCN(C(=O)c2ccc(NC(=O)Nc3ccc(-c4nc(N5CCOCC5)c5ncc(-c6cnn(C)c6)cc5n4)cc3F)cc2)C1`, less than 50 nM; in that of `CN(C)C(=O)c1ccc(NC(=O)Nc2ccc(-c3nc(N4CCOCC4)c4ccc(C(C)(C)O)cc4n3)cc2F)cc1`, 50 to 200 nM.
With `CN(C)[C@H]1CCN(C(=O)c2ccc(NC(=O)Nc3ccc(-c4nc(N5CCOCC5)c5ccc(-c6cncnc6)cc5n4)cc3F)cc2)C1` the figure was less than 50 nM.
